Experimental data reported in ChEMBL document CHEMBL5154879, “Induction of Genes Implicated in Stress Response and Autophagy by a Novel Quinolin-8-yl-nicotinamide QN523 in Pancreatic Cancer” (J Med Chem, 2022).
Activity calls are given as the source filed them. The calls are words filed in the database; no cut-off is given here.

How the values were obtained:
[1] = Downregulation of TNFAIP8LI gene expression in human MIA PaCa-2 cells assessed as fold change in TNFAIP8LI expression at 1 uM incubated for 24 hrs by Bru-seq analysis relative to control; assay type: functional
MIA PaCa-2 [2] = assay: Antitumor activity against human MIA PaCa-2 cells xenografted in NOD/SCID mouse assessed as tumor growth inhibition at 20 mg/kg, ip administered five times a week starting from day 10 to 44 and measured from day 17 relative to control; assay type: functional; details: MIA PaCa-2, 816 h, time 34 day, read-out: TGI
[3] = Downregulation of SMAD6 gene expression in human MIA PaCa-2 cells assessed as fold change in SMAD6 expression at 1 uM incubated for 24 hrs by Bru-seq analysis relative to control; assay type: functional
[4] = Upregulation of ATF3 gene expression in human MIA PaCa-2 cells assessed as fold change in ATF3 expression at 1 uM incubated for 24 hrs by Bru-seq analysis relative to control; assay type: functional
MIA PaCa-2 [5] = assay: Induction of apoptosis in human MIA PaCa-2 cells assessed as viable cells at 0.1 uM incubated for 24 hrs by Annexin V-FITC/PI staining based flow cytometry analysis (reference value: 90.2%); assay type: functional; details: read-out: Activity
OVCAR-8 = assay: Antiproliferative activity against human OVCAR-8 cells assessed as inhibition of cell growth incubated for 72 hrs by MTT assay; assay type: functional, cell-based; details: OVCAR-8, 72 h
[6] = Downregulation of SEMA6B gene expression in human MIA PaCa-2 cells assessed as fold change in SEMA6B expression at 1 uM incubated for 24 hrs by Bru-seq analysis relative to control; assay type: functional
SNU-387 = assay: Antiproliferative activity against human SNU-387 cells assessed as inhibition of cell growth incubated for 72 hrs by MTT assay; assay type: functional, cell-based; details: SNU-387, 72 h
MIA PaCa-2 [7] = assay: Induction of apoptosis in human MIA PaCa-2 cells assessed as late apoptotic cells at 0.1 uM incubated for 48 hrs by Annexin V-FITC/PI staining based flow cytometry analysis (reference value: 0.8%); assay type: functional
[8] = Downregulation of TRAF7 gene expression in human MIA PaCa-2 cells assessed as fold change in TRAF7 expression at 1 uM incubated for 24 hrs by Bru-seq analysis relative to control; assay type: functional
SNU-449 = assay: Antiproliferative activity against human SNU-449 cells assessed as inhibition of cell growth incubated for 72 hrs by MTT assay; assay type: functional, cell-based; details: SNU-449, 72 h
[9] = Toxicity in NOD/SCID mouse xenografted with human MIA PaCa- 2 cells assessed as morphological changes in heart at 10 to 20 mg/kg, ip administered five times a week for 44 days by H and E staining based inverted microscopic analysis; assay type: organism-based; details: in vivo, 1056 h, dose 10-20 mg/kg, time 44 day
MIA PaCa-2 [10] = assay: Upregulation of hypoxia in human MIA PaCa-2 cells by gene set enrichment analysis; assay type: functional, cell-based
[11] = Toxicity in NOD/SCID mouse xenografted with human MIA PaCa- 2 cells assessed as morphological changes in spleen at 10 to 20 mg/kg, ip administered five times a week for 44 days by H and E staining based inverted microscopic analysis; assay type: organism-based; details: in vivo, 1056 h, dose 10-20 mg/kg, time 44 day
[12] = Downregulation of ANKDDIA gene expression in human MIA PaCa-2 cells assessed as fold change in ANKDDIA expression at 1 uM incubated for 24 hrs by Bru-seq analysis relative to control; assay type: functional
MIA PaCa-2 [13] = assay: Induction of cell cycle arrest in human MIA PaCa-2 cells assessed as accumulation of cells in G2/M phase at 0.5 uM incubated for 24 hrs by RNase/propidium iodide staining based flow cytometry analysis (reference value: 8.11%); assay type: functional
MIA PaCa-2 [14] = assay: Induction of apoptosis in human MIA PaCa-2 cells assessed as viable cells at 0.5 uM incubated for 48 hrs by Annexin V-FITC/PI staining based flow cytometry analysis (reference value: 96.3%); assay type: functional; details: read-out: Activity
PANC-1 = assay: Inhibition of colony formation in human PANC-1 cells at 1 uM incubated for 10 to 14 days by crystal violet staining based assay; assay type: functional, cell-based; details: time 10-14 day
MIA PaCa-2 [15] = assay: Induction of cell cycle arrest in human MIA PaCa-2 cells assessed as accumulation of cells in G2/M phase at 0.5 uM incubated for 48 hrs by RNase/propidium iodide staining based flow cytometry analysis (reference value: 2.71%); assay type: functional
MIA PaCa-2 [16] = assay: Induction of cell cycle arrest in human MIA PaCa-2 cells assessed as accumulation of cells in G0/G1 phase at 0.1 uM incubated for 24 hrs by RNase/propidium iodide staining based flow cytometry analysis (reference value: 64.3%); assay type: functional
[17] = Downregulation of CCDC85C gene expression in human MIA PaCa-2 cells assessed as fold change in CCDC85C expression at 1 uM incubated for 24 hrs by Bru-seq analysis relative to control; assay type: functional
[18] = Downregulation of CCNF gene expression in human MIA PaCa-2 cells assessed as fold change in CCNF expression at 1 uM incubated for 24 hrs by Bru-seq analysis relative to control; assay type: functional
[19] = Downregulation of PLEKHG3 gene expression in human MIA PaCa-2 cells assessed as fold change in PLEKHG3 expression at 1 uM incubated for 24 hrs by Bru-seq analysis relative to control; assay type: functional
MIA PaCa-2 [20] = assay: Induction of apoptosis in human MIA PaCa-2 cells assessed as live cells at 0.5 uM incubated for 24 hrs by Annexin V-FITC/PI staining based flow cytometry analysis (reference value: 90.2%); assay type: functional
MIA PaCa-2 [21] = assay: Downregulation of cell cycle gene expression in human MIA PaCa-2 cells; assay type: functional, cell-based
[22] = Downregulation of PLKI gene expression in human MIA PaCa-2 cells assessed as fold change in PLKI expression at 1 uM incubated for 24 hrs by Bru-seq analysis relative to control; assay type: functional
[23] = Toxicity in NOD/SCID mouse xenografted with human MIA PaCa- 2 cells assessed as morphological changes in pancreas at 10 to 20 mg/kg, ip administered five times a week for 44 days by H and E staining based inverted microscopic analysis; assay type: organism-based; details: in vivo, 1056 h, dose 10-20 mg/kg, time 44 day
MIA PaCa-2 [24] = assay: Upregulation of apoptosis transcription gene expression in human MIA PaCa-2 cells; assay type: functional, cell-based
[25] = Upregulation of OSGIN1 gene expression in human MIA PaCa-2 cells assessed as fold change in OSGIN1 expression at 1 uM incubated for 24 hrs by Bru-seq analysis relative to control; assay type: functional
MIA PaCa-2 [26] = assay: Antitumor activity against human MIA PaCa-2 cells xenografted in NOD/SCID mouse assessed as tumor growth delay at 30 mg/kg, ip administered five times a week starting from day 44 to 51 post first dose; assay type: functional, organism-based; details: time 51.0 day
[27] = Upregulation of UPP1 gene expression in human MIA PaCa-2 cells assessed as fold change in UPP1 expression at 1 uM incubated for 24 hrs by Bru-seq analysis relative to control; assay type: functional
MIA PaCa-2 [28] = assay: Induction of apoptosis in human MIA PaCa-2 cells assessed as necrotic cells at 0.5 uM incubated for 24 hrs by Annexin V-FITC/PI staining based flow cytometry analysis (reference value: 2.7%); assay type: functional

Structure (SMILES): O=C(Nc1cccc2cccnc12)c1cnccn1
- fold change (FC) [1]: 0.32
- inhibition in vivo at 20 mg/kg (MIA PaCa-2 [2]): 80%
- fold change (FC) [3]: 0.44
- fold change (FC) [4]: 22
- viability at 0.1 µM (MIA PaCa-2 [5]): 84.9%
- IC50 (OVCAR-8): 300 nM
- fold change (FC) [6]: 0.43
- IC50 (SNU-387): 5.73 µM
- Activity (MIA PaCa-2 [7]): 1.5%
- fold change (FC) [8]: 0.39
- IC50 (SNU-449): 400 nM
- Activity [9]: Non-Toxic
- Activity (MIA PaCa-2 [10]): Active
- Activity [11]: Non-Toxic
- fold change (FC) [12]: 0.45
- Activity (MIA PaCa-2 [13]): 10.5%
- viability at 0.5 µM (MIA PaCa-2 [14]): 95.3%
- inhibition (PANC-1): Active
- Activity (MIA PaCa-2 [15]): 11.5%
- Activity (MIA PaCa-2 [16]): 52%
- fold change (FC) [17]: 0.42
- fold change (FC) [18]: 0.36
- fold change (FC) [19]: 0.39
- Activity (MIA PaCa-2 [20]): 86.2%
- Activity (MIA PaCa-2 [21]): Active
- fold change (FC) [22]: 0.47
- Activity [23]: Non-Toxic
- Activity (MIA PaCa-2 [24]): Active
- fold change (FC) [25]: 7.8
- Activity (MIA PaCa-2 [26]): Active
- fold change (FC) [27]: 18.2
- Activity (MIA PaCa-2 [28]): 1.4%
